The text below walks through data of ChEMBL document CHEMBL1201862, “PubChem BioAssay data set” (2004).

Some test systems named below: A498; DLD-1; DMS-114; HOP-18; HOP-92; K562; LOX IMVI; M19-MEL; MCF7; NCI-H226; NCI-H460; RPMI-8226; SF-295; SK-MEL-5; SW-620; UACC-257; UO-31; XF498; ACHN; SR.
Holding throughout (test): growth of human tumour cells (NCI), 48 h

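48-hour exposure; five concentrations; linearly interpolated endpoints. GI50 marks 50% less growth.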 The source made the active and inactive calls. Cut-off read from the data, not from the text of the source: active = GI50 up to about 1.1 µM and inactive = higher.

On to `COc1cc(C2c3cc4c(cc3[C@@H](Nc3cccc(C(C)=O)c3)C3COC(=O)[C@H]23)OCO4)cc(OC)c1O` (some centres undefined), for which the GI50 is 0.236 µM (active) in the assay with A498; 1.37 µM (inactive) in the assay on DLD-1; 0.505 µM (active) with DMS-114; 1 µM (active) with HOP-18; 0.478 µM (active) in the assay on HOP-92; 0.536 µM (active) in the assay with K562. The GI50 was 0.39 µM (active) in the assay on LOX IMVI; 0.897 µM (active) in the assay on M19-MEL; 0.0785 µM (active) with MCF7; 0.236 µM (active) with NCI-H226; < 0.01 µM (active) with NCI-H460; 0.197 µM (active) in the assay with RPMI-8226. The GI50 is 0.126 µM (active) with SF-295; 0.411 µM (active) in the assay on SK-MEL-5; 0.2 µM (active) with SW-620; 1.05 µM (active) in the assay with UACC-257; 0.291 µM (active) in the assay with UO-31; 0.573 µM (active) with XF498.

For `N/C(=N\O)N/N=C\c1cc([N+](=O)[O-])cc([N+](=O)[O-])c1O`, the GI50 is > 23.2 µM (inactive) in the assay on A498; > 37.2 µM (inactive) with DLD-1; 6.08 µM (inactive) in the assay with DMS-114; > 100 µM (inactive) in the assay on HOP-18; > 100 µM (inactive) in the assay with HOP-92; 5.26 µM (inactive) in the assay on K562. Besides, the GI50 in the assay with LOX IMVI is 2.99 µM (inactive); in the assay on M19-MEL, 40.6 µM (inactive); in the assay on MCF7 it was 19.1 µM (inactive); in the assay with NCI-H226, 29.4 µM (inactive); in the assay on NCI-H460 it was 2.76 µM (inactive); with RPMI-8226, 16.5 µM (inactive). Moreover, the GI50 in the assay with SF-295 is 4.16 µM (inactive); in the assay on SK-MEL-5, 9.42 µM (inactive); in the assay with SW-620, 13.9 µM (inactive); with UACC-257, 98.2 µM (inactive); with UO-31, 4.67 µM (inactive); with XF498 it was 40.8 µM (inactive).

Consider `C/C([O-])=C(/c1nc(-c2ccc([N+](=O)[O-])o2)no1)[n+]1cc(C)ccc1C`, for which the GI50 in the assay with A498 was 18.3 µM (inactive); in the assay with DLD-1 it was 11.5 µM (inactive); in the assay on DMS-114 it was 16.3 µM (inactive); with HOP-18, 10.2 µM (inactive); in the assay on HOP-92 it was > 100 µM (inactive); with K562 it was 0.692 µM (active). Moreover, the GI50 was 5.94 µM (inactive) in the assay on LOX IMVI; 5.19 µM (inactive) with M19-MEL; 4.02 µM (inactive) in the assay with MCF7; 15.7 µM (inactive) in the assay on NCI-H226; 4.62 µM (inactive) in the assay on NCI-H460; 15.3 µM (inactive) with RPMI-8226. The GI50 with SF-295 was 11.7 µM (inactive); in the assay on SK-MEL-5, 10.6 µM (inactive); in the assay on SW-620 it was 5.31 µM (inactive); in the assay with UACC-257, 11.9 µM (inactive); with UO-31 it was 21.7 µM (inactive); in the assay on XF498, 7.48 µM (inactive).

For `Cc1c(N=NN(C)C)cc[n+]([O-])c1C`, the GI50 in the assay on A498, in the assay on DLD-1, in the assay on DMS-114, with HOP-18, in the assay with HOP-92 and in the assay on K562 was > 100 µM (inactive) each time. The GI50 in the assay on LOX IMVI, with M19-MEL, with MCF7, with NCI-H226, in the assay on NCI-H460 and with RPMI-8226 was > 100 µM (inactive) in each case. Besides, the GI50 in the assay with SF-295, with SK-MEL-5, with SW-620, with UACC-257, in the assay on UO-31 and with XF498 was > 100 µM (inactive) in each case.

Take `CSc1nc2c(ncn2C2OCC(O)C(O)C2O)c(=O)n1C` (centres undefined): the GI50 in the assay on A498, with DLD-1, with DMS-114, in the assay with HOP-18, with HOP-92 and with K562 was > 100 µM (inactive) each time. For the same molecule, the GI50 with LOX IMVI, with M19-MEL, with MCF7, in the assay with NCI-H226, with NCI-H460 and in the assay on RPMI-8226 was > 100 µM (inactive) each time. The GI50 in the assay with SF-295, with SK-MEL-5, in the assay with SW-620, with UACC-257, in the assay on UO-31 and with XF498 was > 100 µM (inactive) throughout.

For the molecule `Nc1nnc(N)n1NC(=O)C(=O)Nc1ccc([N+](=O)[O-])cc1`, the GI50 with A498, with ACHN, with DLD-1, in the assay with DMS-114, in the assay on HOP-18 and in the assay on HOP-92 was > 100 µM (inactive) in each case. Besides, the GI50 with K562 is 98.9 µM (inactive); in the assay with LOX IMVI, > 100 µM (inactive); in the assay with M19-MEL, > 100 µM (inactive); with NCI-H226 it was > 100 µM (inactive); in the assay on NCI-H460, > 100 µM (inactive); in the assay with RPMI-8226, > 100 µM (inactive). The GI50 in the assay on SF-295, in the assay on SK-MEL-5, in the assay with SR, in the assay on SW-620, with UACC-257 and with UO-31 was > 100 µM (inactive) each time. Also, in the assay with XF498, the GI50 was > 100 µM (inactive).
